The numbers were not newly measured in US4239780A, “Phospholipase A2 inhibition” (The Upjohn Company, priority 1979, dated 1980), which cites them from elsewhere.

In this data set the test system is phospholipase A2 from venom of Russel Viper. The settings on record: enzyme from Russel Viper venom; cited from earlier work.

For `COc1ccc2c(c1)c(CC(=O)O)c(C)n2C(=O)c1ccc(Cl)cc1` [indomethacin, Indomethacin], the “inhibition of phospholipase A2” value is “inactive”.
